Assay results as given in ChEMBL document CHEMBL3885881, “DrugMatrix”.

Species: Rattus norvegicus
Assay: DrugMatrix - Regimen: Daily Repeat
Type: toxicity, organism-based, Sprague-Dawley
Parameters: regimen Daily Repeat, gender Male, age 6-8 weeks
Conditions: in vivo, po, route oral GAVAGE, vehicle .5 % CMC; for ABSOLUTE BASOPHIL / ABSOLUTE EOSINOPHIL / ABSOLUTE LYMPHOCYTE / ABSOLUTE MONOCYTE / ABSOLUTE SEGMENTED NEUTROPHIL / BASOPHIL / EOSINOPHIL / ERYTHROCYTE COUNT / HEMATOCRIT / HEMOGLOBIN / LEUKOCYTE COUNT / LYMPHOCYTE / MEAN CORPUSCULAR HEMOGLOBIN / MEAN CORPUSCULAR HEMOGLOBIN CONCENTRATION / MEAN CORPUSCULAR VOLUME / MONOCYTE / NEUTROPHIL / NUCLEATED RED BLOOD CELLS / PLATELET COUNT: tissue Blood; for ALANINE AMINOTRANSFERASE / ALBUMIN / ALKALINE PHOSPHATASE / ASPARTATE AMINOTRANSFERASE / BLOOD UREA NITROGEN / CARBON DIOXIDE / CHLORIDE / CHOLESTEROL / CREATINE PHOSPHOKINASE / CREATININE / GLUCOSE / LACTATE DEHYDROGENASE / LIPASE / PHOSPHORUS / POTASSIUM / SODIUM / TOTAL BILIRUBIN / TOTAL PROTEIN / URIC ACID: tissue Plasma
[1] = 1 mg/kg, 120 h, dose level Low, time 5 day
[2] = 1300 mg/kg, 72 h, dose level High, time 3 day
[3] = 1300 mg/kg, 120 h, dose level High, time 5 day

SMILES: CCOc1nc2cccc(C(=O)O)c2n1Cc1ccc(-c2ccccc2-c2nnn[nH]2)cc1
- ABSOLUTE BASOPHIL [1]: 0 CELLS/uL
- ABSOLUTE EOSINOPHIL [1]: 0 CELLS/uL
- ABSOLUTE LYMPHOCYTE [1]: 10713.33 CELLS/uL
- ABSOLUTE MONOCYTE [1]: 81.33 CELLS/uL
- ABSOLUTE SEGMENTED NEUTROPHIL [1]: 1172 CELLS/uL
- BASOPHIL [1]: 0%
- EOSINOPHIL [1]: 0%
- ERYTHROCYTE COUNT [1]: 5.35 x10E6/uL
- HEMATOCRIT [1]: 34.57%
- HEMOGLOBIN [1]: 13.63 G/DL
- LEUKOCYTE COUNT [1]: 11.97 x10E3/uL
- LYMPHOCYTE [1]: 89.67%
- MEAN CORPUSCULAR HEMOGLOBIN [1]: 25.5 pg
- MEAN CORPUSCULAR HEMOGLOBIN CONCENTRATION [1]: 39.43 G/DL
- MEAN CORPUSCULAR VOLUME [1]: 64.67 fL
- MONOCYTE [1]: 0.67%
- NEUTROPHIL [1]: 9.67%
- NUCLEATED RED BLOOD CELLS [1]: 0 /100WBC
- PLATELET COUNT [1]: 1267.33 x10E3/uL
- ALANINE AMINOTRANSFERASE [1]: 54 u/L
- ALBUMIN [1]: 4.1 G/DL
- ALKALINE PHOSPHATASE [1]: 389.33 u/L
- ASPARTATE AMINOTRANSFERASE [1]: 76.67 u/L
- BLOOD UREA NITROGEN [1]: 18.33 mg/dL
- CARBON DIOXIDE [1]: 27 mmol/L
- CHLORIDE [1]: 104.33 MEQ/L
- CHOLESTEROL [1]: 70.33 mg/dL
- CREATINE PHOSPHOKINASE [1]: 187.67 u/L
- CREATININE [1]: 0.19 mg/dL
- GLUCOSE [1]: 161.33 mg/dL
- LACTATE DEHYDROGENASE [1]: 120.67 u/L
- LIPASE [1]: 10.67 u/L
- PHOSPHORUS [1]: 12.2 mg/dL
- POTASSIUM [1]: 5.83 MEQ/L
- SODIUM [1]: 144.5 MEQ/L
- TOTAL BILIRUBIN [1]: 0.2 mg/dL
- TOTAL PROTEIN [1]: 5.97 G/DL
- URIC ACID [1]: 1.6 mg/dL
- ABSOLUTE BASOPHIL [2]: 0 CELLS/uL
- ABSOLUTE EOSINOPHIL [2]: 27.67 CELLS/uL
- ABSOLUTE LYMPHOCYTE [2]: 7595.67 CELLS/uL
- ABSOLUTE MONOCYTE [2]: 24.33 CELLS/uL
- ABSOLUTE SEGMENTED NEUTROPHIL [2]: 519 CELLS/uL
- BASOPHIL [2]: 0%
- EOSINOPHIL [2]: 0.33%
- ERYTHROCYTE COUNT [2]: 5.08 x10E6/uL
- HEMATOCRIT [2]: 32.2%
- HEMOGLOBIN [2]: 13.13 G/DL
- LEUKOCYTE COUNT [2]: 8.17 x10E3/uL
- LYMPHOCYTE [2]: 93%
- MEAN CORPUSCULAR HEMOGLOBIN [2]: 25.87 pg
- MEAN CORPUSCULAR HEMOGLOBIN CONCENTRATION [2]: 40.8 G/DL
- MEAN CORPUSCULAR VOLUME [2]: 63.43 fL
- MONOCYTE [2]: 0.33%
- NEUTROPHIL [2]: 6.33%
- NUCLEATED RED BLOOD CELLS [2]: 0 /100WBC
- PLATELET COUNT [2]: 1033.67 x10E3/uL
- ALANINE AMINOTRANSFERASE [2]: 54 u/L
- ALBUMIN [2]: 4.33 G/DL
- ALKALINE PHOSPHATASE [2]: 351.67 u/L
- ASPARTATE AMINOTRANSFERASE [2]: 93 u/L
- BLOOD UREA NITROGEN [2]: 27.33 mg/dL
- CARBON DIOXIDE [2]: 32 mmol/L
- CHLORIDE [2]: 102 MEQ/L
- CHOLESTEROL [2]: 73 mg/dL
- CREATINE PHOSPHOKINASE [2]: 813.67 u/L
- CREATININE [2]: 0.48 mg/dL
- GLUCOSE [2]: 143 mg/dL
- LACTATE DEHYDROGENASE [2]: 189.33 u/L
- LIPASE [2]: 10.33 u/L
- PHOSPHORUS [2]: 12.17 mg/dL
- POTASSIUM [2]: 7.02 MEQ/L
- SODIUM [2]: 143.6 MEQ/L
- TOTAL BILIRUBIN [2]: 0.23 mg/dL
- TOTAL PROTEIN [2]: 5.93 G/DL
- URIC ACID [2]: 0.93 mg/dL
- ABSOLUTE BASOPHIL [3]: 0 CELLS/uL
- ABSOLUTE EOSINOPHIL [3]: 140.67 CELLS/uL
- ABSOLUTE LYMPHOCYTE [3]: 14776.67 CELLS/uL
- ABSOLUTE MONOCYTE [3]: 166.33 CELLS/uL
- ABSOLUTE SEGMENTED NEUTROPHIL [3]: 1516.33 CELLS/uL
- BASOPHIL [3]: 0%
- EOSINOPHIL [3]: 0.67%
- ERYTHROCYTE COUNT [3]: 5.54 x10E6/uL
- HEMATOCRIT [3]: 34.57%
- HEMOGLOBIN [3]: 13.97 G/DL
- LEUKOCYTE COUNT [3]: 16.6 x10E3/uL
- LYMPHOCYTE [3]: 89.33%
- MEAN CORPUSCULAR HEMOGLOBIN [3]: 25.23 pg
- MEAN CORPUSCULAR HEMOGLOBIN CONCENTRATION [3]: 40.43 G/DL
- MEAN CORPUSCULAR VOLUME [3]: 62.43 fL
- MONOCYTE [3]: 1%
- NEUTROPHIL [3]: 9%
- NUCLEATED RED BLOOD CELLS [3]: 0 /100WBC
- PLATELET COUNT [3]: 1315 x10E3/uL
- ALANINE AMINOTRANSFERASE [3]: 42.33 u/L
- ALBUMIN [3]: 4.33 G/DL
- ALKALINE PHOSPHATASE [3]: 320.67 u/L
- ASPARTATE AMINOTRANSFERASE [3]: 108 u/L
- BLOOD UREA NITROGEN [3]: 32.33 mg/dL
- CARBON DIOXIDE [3]: 24.67 mmol/L
- CHLORIDE [3]: 105 MEQ/L
- CHOLESTEROL [3]: 61.67 mg/dL
- CREATINE PHOSPHOKINASE [3]: 994.33 u/L
- CREATININE [3]: 0.19 mg/dL
- GLUCOSE [3]: 134 mg/dL
- LACTATE DEHYDROGENASE [3]: 1053.67 u/L
- LIPASE [3]: 10 u/L
- PHOSPHORUS [3]: 11.2 mg/dL
- POTASSIUM [3]: 6.2 MEQ/L
- SODIUM [3]: 143.9 MEQ/L
- TOTAL BILIRUBIN [3]: 0.2 mg/dL
- TOTAL PROTEIN [3]: 6.2 G/DL
- URIC ACID [3]: 1.13 mg/dL
